Results: ChEMBL document CHEMBL1201862, “PubChem BioAssay data set” (2004)
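Results reflect a 48-hour exposure of cells in 96-well plates to compound at five concentrations. GI50: concentration for 50% inhibition of growth.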 Activity calls are given as the source filed them. No stated cut-off is given here; in the data, active = GI50 up to about 1.1 µM and inactive = higher.

Experiments:
Assay in all cases: NCI tumour cell line growth inhibition, 48 h
HCC 2998 = system: HCC 2998
OVCAR-4 = system: OVCAR-4
M14 = system: M14
SW-620 = system: SW-620
MOLT-4 = system: MOLT-4
RPMI-8226 = system: RPMI-8226
CAKI-1 = system: CAKI-1
OVCAR-8 = system: OVCAR-8
A549 = system: A549
ACHN = system: ACHN
SF-539 = system: SF-539
NCI/ADR-RES = system: NCI/ADR-RES
HT-29 = system: HT-29
UACC-62 = system: UACC-62
UO-31 = system: UO-31
NCI-H460 = system: NCI-H460
MDA-N = system: MDA-N
NCI-H226 = system: NCI-H226
TK-10 = system: TK-10
SNB-75 = system: SNB-75

Measured: GI50

CC12CC(c3ccccc3O1)C(C(=O)Nc1ccc(Cl)cc1Cl)C(=O)N2 (stereo unspecified)
inactive: HCC 2998 49.1 µM | OVCAR-4 19.6 µM | M14 18 µM | SW-620 24.8 µM | MOLT-4 19.1 µM | RPMI-8226 44 µM | CAKI-1 45 µM | OVCAR-8 14.9 µM | A549 23.2 µM | ACHN 25 µM | SF-539 45.4 µM | NCI/ADR-RES 36.8 µM | HT-29 40.1 µM | UACC-62 > 100 µM | UO-31 19.2 µM | NCI-H460 31.6 µM | MDA-N > 100 µM

O=C1/C(=C\c2cccc(Oc3ccccc3)c2)SC(c2ccccc2)N1c1cccc(Cl)c1 (stereo unspecified)
inactive: HCC 2998 > 100 µM | OVCAR-4 > 100 µM | M14 > 100 µM | SW-620 > 100 µM | MOLT-4 > 100 µM | RPMI-8226 > 100 µM | CAKI-1 > 100 µM | OVCAR-8 > 100 µM | A549 > 100 µM | NCI-H226 > 100 µM | ACHN > 100 µM | NCI/ADR-RES > 100 µM | HT-29 > 100 µM | UACC-62 > 100 µM | UO-31 > 100 µM | NCI-H460 > 100 µM | MDA-N > 100 µM | TK-10 > 100 µM

CN1CCCCC(C#N)(c2ccccc2)CC1 (stereo unspecified)
inactive: HCC 2998 > 100 µM | OVCAR-4 > 100 µM | M14 > 100 µM | SW-620 > 100 µM | MOLT-4 > 100 µM | RPMI-8226 > 100 µM | CAKI-1 > 100 µM | OVCAR-8 > 100 µM | A549 > 100 µM | ACHN > 100 µM | NCI/ADR-RES > 100 µM | HT-29 > 100 µM | SNB-75 > 100 µM | UO-31 > 100 µM | NCI-H460 > 100 µM | MDA-N > 100 µM | TK-10 > 100 µM

O=C1C(c2c(O)[nH]c3ccc(Br)cc23)=Nc2ccc(Br)cc21
inactive: HCC 2998 > 100 µM | OVCAR-4 53.7 µM | M14 97.9 µM | SW-620 74.5 µM | MOLT-4 45 µM | RPMI-8226 > 100 µM | CAKI-1 > 100 µM | OVCAR-8 27.1 µM | A549 32.7 µM | NCI-H226 > 100 µM | ACHN > 100 µM | NCI/ADR-RES 34 µM | HT-29 48.4 µM | UACC-62 > 100 µM | SNB-75 19.7 µM | UO-31 > 100 µM | NCI-H460 37 µM | MDA-N 31.2 µM | TK-10 72.9 µM

Clc1ccc(-c2ccc(-c3nnc(COc4ccc(OCc5nnc(-c6ccc(-c7ccc(Cl)cc7Cl)o6)o5)c(Cl)c4)o3)o2)c(Cl)c1
inactive: HCC 2998 > 100 µM | OVCAR-4 > 100 µM | M14 > 100 µM | SW-620 > 100 µM | MOLT-4 28.4 µM | RPMI-8226 > 100 µM | CAKI-1 > 100 µM | OVCAR-8 45.7 µM | A549 > 100 µM | NCI-H226 > 100 µM | ACHN > 100 µM | NCI/ADR-RES > 100 µM | HT-29 > 100 µM | UACC-62 > 100 µM | UO-31 > 100 µM | NCI-H460 > 100 µM | MDA-N > 100 µM | TK-10 84.5 µM

C=CCCC1(CCP(=O)(c2ccccc2)c2ccccc2)OCCO1
inactive: HCC 2998 > 100 µM | M14 > 100 µM | SW-620 > 100 µM | MOLT-4 > 100 µM | RPMI-8226 > 100 µM | OVCAR-8 > 100 µM | A549 > 100 µM | ACHN > 100 µM | SF-539 > 100 µM | NCI/ADR-RES > 100 µM | HT-29 > 100 µM | UACC-62 > 100 µM | SNB-75 > 100 µM | UO-31 > 100 µM | NCI-H460 > 100 µM | MDA-N > 100 µM | TK-10 > 100 µM

CCc1cc(O)c(Cl)c(C)c1Cl
inactive: HCC 2998 15.2 µM | OVCAR-4 15.1 µM | M14 18.6 µM | SW-620 21.9 µM | RPMI-8226 13.8 µM | CAKI-1 17.3 µM | OVCAR-8 18.2 µM | A549 23.1 µM | ACHN 15.7 µM | SF-539 18.2 µM | NCI/ADR-RES 21.7 µM | HT-29 19.2 µM | UACC-62 15.1 µM | SNB-75 18.9 µM | UO-31 19.1 µM | NCI-H460 15.6 µM | MDA-N 16.3 µM | TK-10 18.2 µM

CC1=CCC(=O)[C@]2(C)C(CC(=O)O)[C@]3(C)C4=C(C)C(c5ccoc5)C[C@@H]4O[C@@H]3[C@H](O)[C@@H]12 (stereo partly specified)
inactive: HCC 2998 > 100 µM | OVCAR-4 > 100 µM | M14 > 100 µM | SW-620 > 100 µM | MOLT-4 > 100 µM | RPMI-8226 > 100 µM | CAKI-1 > 100 µM | OVCAR-8 > 100 µM | A549 > 100 µM | ACHN > 100 µM | SF-539 > 100 µM | NCI/ADR-RES > 100 µM | UACC-62 > 100 µM | SNB-75 > 100 µM | UO-31 > 100 µM | NCI-H460 > 100 µM | MDA-N > 100 µM | TK-10 > 100 µM

O=C1CC(NC(=O)C(F)(F)F)c2c(Br)sc(N3CCC(c4ccccc4)CC3)c21 (stereo unspecified)
inactive: HCC 2998 > 100 µM | OVCAR-4 11.5 µM | M14 > 100 µM | SW-620 43.4 µM | MOLT-4 4.68 µM | CAKI-1 12.9 µM | OVCAR-8 24.9 µM | A549 32.8 µM | NCI-H226 28.4 µM | ACHN 28.1 µM | SF-539 44.6 µM | NCI/ADR-RES 69 µM | HT-29 56.5 µM | UACC-62 20.4 µM | SNB-75 69.3 µM | UO-31 8.77 µM | NCI-H460 13.7 µM | MDA-N 78.9 µM | TK-10 19 µM

COc1cc(/C=C2\N=C(c3ccccc3)N(c3nc4ccc(Sc5ccccc5)cc4[nH]3)C2=O)cc(OC)c1OC
inactive: HCC 2998 16.5 µM | OVCAR-4 41.1 µM | M14 19.3 µM | SW-620 25 µM | MOLT-4 26.8 µM | RPMI-8226 20.1 µM | CAKI-1 31.1 µM | OVCAR-8 32.7 µM | A549 34.3 µM | ACHN 22.9 µM | NCI/ADR-RES 20.4 µM | HT-29 21.4 µM | UACC-62 15.4 µM | SNB-75 17.4 µM | UO-31 34.4 µM | NCI-H460 21.6 µM | MDA-N 4.76 µM | TK-10 24.6 µM

CC12CCC(C1)C(C)(C)C2OC(=O)c1ccccc1C(=O)O (stereo unspecified)
inactive: HCC 2998 > 100 µM | OVCAR-4 > 100 µM | M14 > 100 µM | SW-620 > 100 µM | MOLT-4 > 100 µM | RPMI-8226 > 100 µM | CAKI-1 > 100 µM | OVCAR-8 > 100 µM | A549 > 100 µM | NCI-H226 > 100 µM | ACHN > 100 µM | NCI/ADR-RES > 100 µM | HT-29 > 100 µM | UACC-62 > 100 µM | SNB-75 > 100 µM | UO-31 > 100 µM | NCI-H460 > 100 µM | MDA-N > 100 µM | TK-10 > 100 µM

N/C(=N\c1ccc(Cl)c(Cl)c1)c1ccccc1N
inactive: HCC 2998 17.7 µM | OVCAR-4 50.8 µM | M14 15.5 µM | SW-620 63.8 µM | MOLT-4 2.7 µM | RPMI-8226 15.6 µM | CAKI-1 30.3 µM | OVCAR-8 26.4 µM | A549 25.3 µM | NCI-H226 42.6 µM | ACHN 56.8 µM | NCI/ADR-RES 19.2 µM | HT-29 24.3 µM | UACC-62 54.5 µM | SNB-75 31.4 µM | UO-31 24.2 µM | NCI-H460 34.8 µM | MDA-N 19.6 µM | TK-10 36.8 µM

CN(C)CCN1C(=O)N(CCN(C)C)c2c3cc(O)ccc3nc3c([N+](=O)[O-])ccc1c23
inactive: HCC 2998 8.73 µM | OVCAR-4 9.66 µM | SW-620 4.92 µM | RPMI-8226 14.2 µM | CAKI-1 13.1 µM | OVCAR-8 5.55 µM | A549 9.12 µM | NCI-H226 12.6 µM | ACHN 6.22 µM | NCI/ADR-RES 19.4 µM | HT-29 6.08 µM | UACC-62 15.9 µM | SNB-75 19.1 µM | UO-31 16.7 µM | NCI-H460 3.63 µM | MDA-N 13 µM | TK-10 10.6 µM

COc1cc(/C=C2\N=C(c3ccccc3)N(c3cc4cc(Sc5ccccc5)ccc4[nH]3)C2=O)cc(OC)c1OC
inactive: HCC 2998 12.7 µM | OVCAR-4 26 µM | M14 11.4 µM | SW-620 19.2 µM | MOLT-4 10.1 µM | CAKI-1 17.3 µM | OVCAR-8 12.6 µM | A549 19.5 µM | NCI-H226 12.2 µM | ACHN 18.4 µM | SF-539 12.3 µM | NCI/ADR-RES 20.2 µM | HT-29 16.1 µM | UACC-62 10.1 µM | SNB-75 12.7 µM | UO-31 14.3 µM | NCI-H460 14.3 µM | MDA-N 3.72 µM

COc1ccc(OC)c(NCC(=O)Nn2cnc3ccc(S(=O)(=O)Nc4cc(OC)ccc4OC)cc3c2=O)c1
inactive: HCC 2998 37.2 µM | OVCAR-4 > 100 µM | M14 > 100 µM | SW-620 > 100 µM | MOLT-4 31.2 µM | CAKI-1 > 100 µM | OVCAR-8 > 100 µM | A549 90.8 µM | NCI-H226 > 100 µM | ACHN > 100 µM | SF-539 > 100 µM | NCI/ADR-RES > 100 µM | HT-29 45.5 µM | UACC-62 > 100 µM | SNB-75 > 100 µM | UO-31 75.7 µM | NCI-H460 86.3 µM | MDA-N 41.3 µM | TK-10 > 100 µM
